Data published in article PMC10798554, “Interaction of PINK1 with nucleotides and kinetin” (Science Advances, 2024).

What was measured:
Format in all cases: biochemical
HsPINK1 [1] = biological target: T1, HsPINK1 (Homo sapiens, UniProt Q9BXM7, M318A); test: ubiquitin phosphorylation by heavy membranes, pSer65 Western blot; settings: 15 uM ubiquitin, pH 7.4, 30 C
T1 construct: gene PINK1; HsPINK1 expressed transiently (pcDNA5d3) in HeLa PINK1-/- cells; heavy membrane fraction after oligomycin/antimycin treatment
T1 sequence (Q9BXM7 78-581 M318A): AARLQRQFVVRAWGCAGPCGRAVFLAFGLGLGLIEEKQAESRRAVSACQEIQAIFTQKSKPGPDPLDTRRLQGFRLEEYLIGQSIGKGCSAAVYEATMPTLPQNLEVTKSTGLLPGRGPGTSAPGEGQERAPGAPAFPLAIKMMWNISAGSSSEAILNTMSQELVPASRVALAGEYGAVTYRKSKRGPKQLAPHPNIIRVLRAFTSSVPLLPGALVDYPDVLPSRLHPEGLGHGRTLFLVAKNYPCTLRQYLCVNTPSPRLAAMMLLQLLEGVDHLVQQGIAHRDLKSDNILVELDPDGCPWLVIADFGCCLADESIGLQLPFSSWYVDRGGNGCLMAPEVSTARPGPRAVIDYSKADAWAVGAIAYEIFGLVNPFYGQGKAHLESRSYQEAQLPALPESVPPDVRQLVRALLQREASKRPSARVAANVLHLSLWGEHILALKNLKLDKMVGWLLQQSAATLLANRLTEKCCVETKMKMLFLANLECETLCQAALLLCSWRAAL

[2] = biological target: T2, PhPINK1 (residues 115 to 575) (Pediculus humanus, UniProt E0W1I1); test: ubiquitin phosphorylation, Phos-tag SDS-PAGE; settings: 1 mM ATP, 15 uM ubiquitin, 10 mM MgCl2, pH 7.4, 22 C
T2 construct: gene Pink1; residues 115-575, kinase domain with N- and C-terminal extensions; E. coli Rosetta2; N-terminal GST tag with 3C protease site in vector; autophosphorylated monomer for thermal shift, lambda-phosphatase-treated homo-dodecamer (six dimers) for cryo-EM
T2 sequence (E0W1I1 115-575): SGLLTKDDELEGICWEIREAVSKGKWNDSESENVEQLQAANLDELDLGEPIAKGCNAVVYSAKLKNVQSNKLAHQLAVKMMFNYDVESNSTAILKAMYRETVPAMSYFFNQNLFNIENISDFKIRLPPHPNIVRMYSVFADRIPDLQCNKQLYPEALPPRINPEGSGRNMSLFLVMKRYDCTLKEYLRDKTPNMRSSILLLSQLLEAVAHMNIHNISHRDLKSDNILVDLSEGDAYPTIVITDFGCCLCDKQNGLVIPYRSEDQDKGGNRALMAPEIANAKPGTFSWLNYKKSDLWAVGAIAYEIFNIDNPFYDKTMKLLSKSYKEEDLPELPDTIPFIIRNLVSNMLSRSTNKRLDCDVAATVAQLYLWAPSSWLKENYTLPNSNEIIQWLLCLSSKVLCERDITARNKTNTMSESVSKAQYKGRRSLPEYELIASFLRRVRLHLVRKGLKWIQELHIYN

HsPINK1 [3] = biological target: T3, HsPINK1 (Homo sapiens, UniProt Q9BXM7, M318G); test: ubiquitin phosphorylation by heavy membranes, pSer65 Western blot; settings: 1 mM KTP, 15 uM ubiquitin, pH 7.4, 30 C
T3 construct: gene PINK1; HsPINK1 expressed transiently (pcDNA5d3) in HeLa PINK1-/- cells; heavy membrane fraction after oligomycin/antimycin treatment
T3 sequence (Q9BXM7 78-581 M318G): as the sequence (Q9BXM7 78-581 M318A) above, with A241G counted along it

| Compound | ubiquitin phosphorylation by heavy membranes, pSer65 Western blot (HsPINK1 [1]; 1 mM ATP) | ubiquitin phosphorylation, Phos-tag SDS-PAGE [2] | ubiquitin phosphorylation by heavy membranes, pSer65 Western blot (HsPINK1 [1]; 1 mM KTP) | ubiquitin phosphorylation by heavy membranes, pSer65 Western blot (HsPINK1 [3]) |
| --- | --- | --- | --- | --- |
| Nc1ncnc2c1ncn2[C@@H]1O[C@H](COP(=O)(O)OP(=O)(O)OP(=O)(O)O)[C@@H](O)[C@H]1O [ATP] | HsPINK1 M318A, is active with both ATP and KTP | Time course ubiquitin phosphorylation assay using WT PhPINK1 in the presence of ATP | – | – |
| O=P(O)(O)OP(=O)(O)OP(=O)(O)OC[C@H]1O[C@@H](n2cnc3c(NCc4ccco4)ncnc32)[C@H](O)[C@@H]1O [KTP] | – | – | both mutants were able to use KTP instead of ATP to generate phospho-ubiquitin | both mutants were able to use KTP instead of ATP to generate phospho-ubiquitin |
